This note sets out measurements from US20230114728A1 (Venatorx Pharmaceuticals, Inc., priority 2019, published 2023).

Converted amounts (≈) assume the structure as drawn.

Type in all cases: cell-based
One assay relates to E. coli AG100. Description: Broth microdilution MIC in CAMHB. The following applies: Escherichia coli; E. coli AG100 (wild-type parent); MHB; read-out: Minimum Inhibitory Concentration, E. coli AG100. Put shortly: (§1)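 Hyper-permeable or efflux-deficient strains serve to probe outer-membrane penetration. Growth inhibition is scored visually after 16-20 h at 37° C in CAMHB, starting from 2-8×10^5 CFU/mL.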
(In general: In broth dilution the organism is exposed to a series of concentrations in liquid medium.)

In a further assay the test system is E. coli ATCC 25922. As to the kind of experiment: Broth microdilution MIC in CAMHB. The following applies: Escherichia coli, ATCC25922; E. coli ATCC 25922; MHB; read-out: Minimum Inhibitory Concentration, E. coli 25922. Put shortly:
as §1

The test system of another assay is P. aeruginosa ATCC 35151. Description: Broth microdilution MIC in CAMHB. The following applies: Pseudomonas aeruginosa, ATCC35151; MHB; hyper-permeable strain; read-out: Minimum Inhibitory Concentration, P. aeruginosa ATCC 35151. A digest of the protocol: as §1
Assay [1] relates to K. pneumoniae SI-117 producing VIM-1. As to the kind of experiment: Broth microdilution MIC in CAMHB. The following applies: Klebsiella pneumoniae, read-out: Minimum Inhibitory Concentration, K. pneumoniae SI-117. Put shortly: as §1
Assay [2] concerns K. pneumoniae UMM producing SHV-5 and KPC-2. Description: Broth microdilution MIC in CAMHB. The following applies: Klebsiella pneumoniae, read-out: Minimum Inhibitory Concentration, K. pneumoniae UMM. Put shortly: as §1
Another assay concerns E. coli 901C. Description: Broth microdilution MIC in CAMHB. The following applies: Escherichia coli; E. coli 901C (hyper-permeable); MHB; read-out: Minimum Inhibitory Concentration, E. coli 901C. A digest of the protocol: as §1
Another assay has as its system E. coli D22. Description: Broth microdilution MIC in CAMHB. Conditions: Escherichia coli; E. coli D22 (hyper-permeable); MHB; read-out: Minimum Inhibitory Concentration, E. coli D22. A digest of the protocol:
as §1

The next assay relates to A. baumannii ATCC 19606. As to the kind of experiment: Broth microdilution MIC in CAMHB. The following applies: Acinetobacter baumannii, ATCC19606; MHB; read-out: Minimum Inhibitory Concentration, A. baumannii ATCC 19606. Put shortly:
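MIC, read by eye, is the lowest compound concentration giving no bacterial growth after 16-20 h at 37° C. Test compounds are serially diluted 2-fold in CAMHB and seeded with 2-8×10^5 CFU/mL of bacteria taken from a 3-5 h shaking culture, following CLSI methods.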

A further assay deals with P. aeruginosa ATCC 27853. Description: Broth microdilution MIC in CAMHB. Conditions: Pseudomonas aeruginosa, ATCC27853; MHB; read-out: Minimum Inhibitory Concentration, P. aeruginosa ATCC 27853. A digest of the protocol: as §1
In assay [3] the test system is P. aeruginosa (ΔmexAB-oprM). As to the kind of experiment: Broth microdilution MIC in CAMHB. The following applies: Pseudomonas aeruginosa, read-out: Minimum Inhibitory Concentration, P. aeruginosa ΔmexAB-OprM. A digest of the protocol: as §1
The test system of assay [4] is K. pneumoniae 848844 producing SHV-11 and KPC-2. As to the kind of experiment: Broth microdilution MIC in CAMHB. Conditions: Klebsiella pneumoniae, read-out: Minimum Inhibitory Concentration, K. pneumoniae 848844. A digest of the protocol:
as §1

The test system of the next assay is E. coli AG100A. As to the kind of experiment: Broth microdilution MIC in CAMHB. Conditions: Escherichia coli, read-out: Minimum Inhibitory Concentration, E. coli AG100A. A digest of the protocol: as §1
The subject of a further assay is N. gonorrhoeae WHO L. Description: Liquid broth MIC in Fastidious broth. Conditions: Neisseria gonorrhoeae; N. gonorrhoeae strain WHO L; Fastidious broth; read-out: Minimum Inhibitory Concentration, N. gonorrhoeae WHO L. Put shortly: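 Colonies were swabbed from chocolate agar after 24 h growth and standardised by optical density at 600 nm. Compounds were serially diluted twofold in Fastidious broth, and bacteria added to give 5×10^5 CFU/mL. After about 24 h at 36 °C in 5% CO2, the lowest concentration allowing under 10% growth was taken as MIC.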

For the molecule `CCN1CCN(C(=O)N[C@H](C(=O)N[C@H]2Cc3cccc(C(=O)O)c3OB2O)c2ccc(C(=O)O)cc2)C(=O)C1=O` (single isomer, unassigned) [Example 123], the MIC with E. coli AG100 is 32 to 64 µg/mL (≈ 57.9 to 116 µM); in the assay with E. coli ATCC 25922, over 128 µg/mL; in the assay with P. aeruginosa ATCC 35151, 0.5 to 1 µg/mL (≈ 0.905 to 1.81 µM); in assay [1] it was over 128 µg/mL; in assay [2], over 128 µg/mL; in the assay with E. coli 901C, under 0.25 µg/mL. Further, the MIC in the assay with E. coli D22 was 2 to 4 µg/mL (≈ 3.62 to 7.24 µM); in the assay with A. baumannii ATCC 19606, over 128 µg/mL; with P. aeruginosa ATCC 27853 it was over 128 µg/mL; in [3], 8 to 16 µg/mL (≈ 14.5 to 29 µM); in assay [4], over 128 µg/mL; with E. coli AG100A, 8 to 16 µg/mL (≈ 14.5 to 29 µM). In the assay with N. gonorrhoeae WHO L, the MIC fell in the range of 16 to 32 µg/mL (≈ 29 to 57.9 µM).
On to `CCN1CCN(C(=O)N[C@@H](C(=O)N[C@H]2Cc3cccc(C(=O)O)c3OB2O)c2ccc(C(=O)O)cc2)C(=O)C1=O` (single isomer, unassigned) [Example 124], for which the MIC was 8 to 16 µg/mL (≈ 14.5 to 29 µM) with E. coli AG100; 32 to 64 µg/mL (≈ 57.9 to 116 µM) in the assay with E. coli ATCC 25922; under 0.25 µg/mL with P. aeruginosa ATCC 35151; over 128 µg/mL in assay [1]; 32 to 64 µg/mL (≈ 57.9 to 116 µM) in assay [2]; under 0.25 µg/mL in the assay with E. coli 901C. Further, the MIC in the assay with E. coli D22 is 2 to 4 µg/mL (≈ 3.62 to 7.24 µM); in the assay on A. baumannii ATCC 19606, over 128 µg/mL; in the assay with P. aeruginosa ATCC 27853, 32 to 64 µg/mL (≈ 57.9 to 116 µM); in [3], 2 to 4 µg/mL (≈ 3.62 to 7.24 µM); in assay [4] it was over 128 µg/mL; with E. coli AG100A, 2 to 4 µg/mL (≈ 3.62 to 7.24 µM). Also, the MIC in the assay with N. gonorrhoeae WHO L lay within 4 to 8 µg/mL (≈ 7.24 to 14.5 µM).
Consider `CCN1CCN(C(=O)N[C@H](C(=O)N[C@H]2Cc3ccc(F)c(C(=O)O)c3OB2O)c2c(F)cc(O)c(O)c2Cl)C(=O)C1=O` (single isomer, unassigned) [Example 125], for which the MIC in the assay with E. coli AG100 was 32 to 64 µg/mL (≈ 52.4 to 105 µM); with E. coli ATCC 25922 it was 32 to 64 µg/mL (≈ 52.4 to 105 µM); with P. aeruginosa ATCC 35151, 2 to 4 µg/mL (≈ 3.27 to 6.55 µM); in assay [1], 32 to 64 µg/mL (≈ 52.4 to 105 µM); in assay [2], 32 to 64 µg/mL (≈ 52.4 to 105 µM); in the assay on E. coli 901C, under 0.25 µg/mL. In addition, the MIC with E. coli D22 is 2 to 4 µg/mL (≈ 3.27 to 6.55 µM); in the assay with A. baumannii ATCC 19606, over 128 µg/mL; in the assay on P. aeruginosa ATCC 27853 it was over 128 µg/mL; in assay [3], 32 to 64 µg/mL (≈ 52.4 to 105 µM); in assay [4] it was 32 to 64 µg/mL (≈ 52.4 to 105 µM); in the assay with E. coli AG100A it was 2 to 4 µg/mL (≈ 3.27 to 6.55 µM). In addition, the MIC in the assay with N. gonorrhoeae WHO L was over 64 µg/mL.
Turning to `NCCN1CCN(C(=O)N[C@@H](C(=O)N[C@H]2Cc3ccc(F)c(C(=O)O)c3OB2O)c2c(F)cc(O)cc2F)C(=O)C1=O` (single isomer, unassigned) [Example 127], the MIC with E. coli AG100 was 8 to 16 µg/mL (≈ 13.5 to 27 µM); with E. coli ATCC 25922 it was 8 to 16 µg/mL (≈ 13.5 to 27 µM); with P. aeruginosa ATCC 35151, 0.5 to 1 µg/mL (≈ 0.843 to 1.69 µM); in assay [1], 32 to 64 µg/mL (≈ 53.9 to 108 µM); in [2], 8 to 16 µg/mL (≈ 13.5 to 27 µM); in the assay on E. coli 901C it was 2 to 4 µg/mL (≈ 3.37 to 6.74 µM). Besides, the MIC with E. coli D22 was 2 to 4 µg/mL (≈ 3.37 to 6.74 µM); with A. baumannii ATCC 19606, over 128 µg/mL; with P. aeruginosa ATCC 27853 it was over 128 µg/mL; in [3], 8 to 16 µg/mL (≈ 13.5 to 27 µM); in [4], 32 to 64 µg/mL (≈ 53.9 to 108 µM); in the assay on E. coli AG100A, 8 to 16 µg/mL (≈ 13.5 to 27 µM). Also, in the assay with N. gonorrhoeae WHO L, the MIC is over 64 µg/mL.
As to `NCCN1CCN(C(=O)N[C@H](C(=O)N[C@H]2Cc3ccc(F)c(C(=O)O)c3OB2O)c2c(F)cc(O)cc2F)C(=O)C1=O` (single isomer, unassigned) [Example 128], the MIC with E. coli AG100 was 32 to 64 µg/mL (≈ 53.9 to 108 µM); in the assay with E. coli ATCC 25922, 32 to 64 µg/mL (≈ 53.9 to 108 µM); in the assay with P. aeruginosa ATCC 35151, 2 to 4 µg/mL (≈ 3.37 to 6.74 µM); in [1], over 128 µg/mL; in [2], 32 to 64 µg/mL (≈ 53.9 to 108 µM); in the assay with E. coli 901C it was 8 to 16 µg/mL (≈ 13.5 to 27 µM). Moreover, the MIC is 8 to 16 µg/mL (≈ 13.5 to 27 µM) in the assay with E. coli D22; over 128 µg/mL in the assay with A. baumannii ATCC 19606; over 128 µg/mL with P. aeruginosa ATCC 27853; 32 to 64 µg/mL (≈ 53.9 to 108 µM) in [3]; over 128 µg/mL in [4]; 32 to 64 µg/mL (≈ 53.9 to 108 µM) with E. coli AG100A. Besides, the MIC in the assay with N. gonorrhoeae WHO L was over 64 µg/mL.
